# Data from PubChem BioAssay AID1259407 (Chemical Carcinogenesis Research Information System (CCRIS), 2018).
# Calls of active or inactive are those of the source. No rule for the calls is given here.
# Test system: CCRIS mutagenicity, Ames/micronucleus/aberration tests
# Assay: CCRIS mutagenicity studies
# [1] = Test System: AMES SALMONELLA TYPHIMURIUM, Strain/Indicator: TA100, Metabolic Activation: RAT, LIVER, S-9, PHENOBARBITAL AND 5,6-BENZOFLAVONE, Method: PREINCUBATION
# [2] = Test System: AMES SALMONELLA TYPHIMURIUM, Strain/Indicator: TA98, Metabolic Activation: NONE, Method: STANDARD PLATE
# [3] = Test System: AMES SALMONELLA TYPHIMURIUM, Strain/Indicator: TA98, Metabolic Activation: RAT, LIVER, S-9, AROCLOR 1254, Method: STANDARD PLATE
# [4] = Test System: AMES SALMONELLA TYPHIMURIUM, Strain/Indicator: TA100, Metabolic Activation: RAT, LIVER, S-9, AROCLOR 1254, Method: STANDARD PLATE
# [5] = Test System: AMES SALMONELLA TYPHIMURIUM, Strain/Indicator: TA100, Metabolic Activation: NONE, Method: STANDARD PLATE
# [6] = Test System: AMES SALMONELLA TYPHIMURIUM, Strain/Indicator: TA98, Metabolic Activation: NONE, Method: PREINCUBATION
# [7] = Test System: AMES SALMONELLA TYPHIMURIUM, Strain/Indicator: TA100, Metabolic Activation: NONE, Method: PREINCUBATION
compound,measurement,setting,value
O=c1c2cc(O)ccc2oc2cc(O)cc(O)c12,mutagenic call,"Test System: AMES SALMONELLA TYPHIMURIUM, Strain/Indicator: TA97, Metabolic Activation: RAT, LIVER, S-9, PHENOBARBITAL AND 5,6-BENZOFLAVONE, Method: PREINCUBATION",active; positive
same,mutagenic call,"Test System: AMES SALMONELLA TYPHIMURIUM, Strain/Indicator: TA98, Metabolic Activation: RAT, LIVER, S-9, PHENOBARBITAL AND 5,6-BENZOFLAVONE, Method: PREINCUBATION",inactive; negative
same,mutagenic call,[1],active; positive
same,mutagenic call,"Test System: AMES SALMONELLA TYPHIMURIUM, Strain/Indicator: TA2637, Metabolic Activation: RAT, LIVER, S-9, PHENOBARBITAL AND 5,6-BENZOFLAVONE, Method: PREINCUBATION",active; positive
CC(C)=C[C@H]1[C@@H](C(=O)OCc2coc(Cc3ccccc3)c2)C1(C)C,mutagenic call,[2],inactive; negative
same,mutagenic call,[3],inactive; negative
same,mutagenic call,[4],inactive; negative
same,mutagenic call,"Test System: CHINESE HAMSTER V-79, Strain/Indicator: V-79/6-THIOGUANINE, Metabolic Activation: NONE, Method: STANDARD PLATE",inactive; negative
same,mutagenic call,"Test System: CHINESE HAMSTER V-79, Strain/Indicator: V-79/6-THIOGUANINE, Metabolic Activation: RAT HEPATOCYTES, Method: STANDARD PLATE",inactive; negative
same,mutagenic call,"Test System: CHINESE HAMSTER V-79, Strain/Indicator: V-79/OUABAIN, Metabolic Activation: NONE, Method: STANDARD PLATE",inactive; negative
same,mutagenic call,"Test System: CHINESE HAMSTER V-79, Strain/Indicator: V-79/OUABAIN, Metabolic Activation: RAT HEPATOCYTES, Method: STANDARD PLATE",inactive; negative
CSC(=O)c1cccc2nnsc12,mutagenic call,"End Point: In vivo micronucleus, Test System: Femoral bone marrow polychromatic erythrocytes, Species: Mouse, Strain/Sex: Female, Route: Gavage",inactive; negative; strain is not given by dpr reviewer
same,mutagenic call,"End Point: In vivo micronucleus, Test System: Femoral bone marrow polychromatic erythrocytes, Species: Mouse, Strain/Sex: Male, Route: Gavage",inactive; negative; strain is not given by dpr reviewer
Nc1ccc(/C=C/c2cccc(Cl)c2)cc1,mutagenic call,"Test System: AMES SALMONELLA TYPHIMURIUM, Strain/Indicator: TA98(1,8-DNP6), Metabolic Activation: NONE, Method: STANDARD PLATE",inactive; negative
same,mutagenic call,"Test System: AMES SALMONELLA TYPHIMURIUM, Strain/Indicator: TA98(1,8-DNP6), Metabolic Activation: S-9, Method: STANDARD PLATE",active; positive
same,mutagenic call,[2],active; positive
same,mutagenic call,"Test System: AMES SALMONELLA TYPHIMURIUM, Strain/Indicator: TA98, Metabolic Activation: S-9, Method: STANDARD PLATE",active; positive
same,mutagenic call,[5],inactive; negative
same,mutagenic call,"Test System: AMES SALMONELLA TYPHIMURIUM, Strain/Indicator: TA100, Metabolic Activation: S-9, Method: STANDARD PLATE",active; positive
Clc1ccc2cc3ccccc3cc2c1,mutagenic call,[2],inactive; negative
same,mutagenic call,[3],active; positive
same,mutagenic call,[5],inactive; negative
same,mutagenic call,[4],inactive; negative
Cn1c([N+](=O)[O-])nc2c3cccnc3ccc21,mutagenic call,"Test System: AMES SALMONELLA TYPHIMURIUM, Strain/Indicator: TA98(1,8-DNP6), Metabolic Activation: NONE, Method: PREINCUBATION",inactive; negative
same,mutagenic call,[6],active; positive
same,mutagenic call,"Test System: AMES SALMONELLA TYPHIMURIUM, Strain/Indicator: YG1024, Metabolic Activation: NONE, Method: PREINCUBATION",active; positive
same,mutagenic call,"Test System: E. COLI, Strain/Indicator: CC109, Metabolic Activation: NONE, Method: STANDARD PLATE",active; positive
same,mutagenic call,"Test System: E. COLI, Strain/Indicator: CC109PYG219, Metabolic Activation: NONE, Method: STANDARD PLATE",active; positive
same,mutagenic call,"Test System: E. COLI, Strain/Indicator: DJ3107, Metabolic Activation: NONE, Method: STANDARD PLATE",inactive; negative
same,mutagenic call,"Test System: E. COLI, Strain/Indicator: DJ3108, Metabolic Activation: NONE, Method: STANDARD PLATE",active; positive
same,mutagenic call,"Test System: E. COLI, Strain/Indicator: DJ3109, Metabolic Activation: NONE, Method: STANDARD PLATE",active; positive
same,mutagenic call,"Test System: E. COLI, Strain/Indicator: DJ3110, Metabolic Activation: NONE, Method: STANDARD PLATE",inactive; negative
same,mutagenic call,"Test System: E. COLI, Strain/Indicator: DJ3111, Metabolic Activation: NONE, Method: STANDARD PLATE",inactive; negative
same,mutagenic call,"Test System: E. COLI, Strain/Indicator: DJ3207, Metabolic Activation: NONE, Method: STANDARD PLATE",inactive; negative
same,mutagenic call,"Test System: E. COLI, Strain/Indicator: DJ3208, Metabolic Activation: NONE, Method: STANDARD PLATE",active; positive
same,mutagenic call,"Test System: E. COLI, Strain/Indicator: DJ3209, Metabolic Activation: NONE, Method: STANDARD PLATE",active; positive
same,mutagenic call,"Test System: E. COLI, Strain/Indicator: DJ3211, Metabolic Activation: NONE, Method: STANDARD PLATE",inactive; negative
O=[N+]([O-])c1ccc2ccc3c4c(cc5ccc1c2c53)[C@H](O)[C@@H](O)C=C4,mutagenic call,"Test System: AMES SALMONELLA TYPHIMURIUM, Strain/Indicator: TA98, Metabolic Activation: NONE",active; positive
same,mutagenic call,"Test System: AMES SALMONELLA TYPHIMURIUM, Strain/Indicator: TA98, Metabolic Activation: RAT, LIVER, S-9, AROCLOR 1254",active; positive
same,mutagenic call,"Test System: CHINESE HAMSTER OVARY, Strain/Indicator: CHO-K1-BH4 (HGPRT), Metabolic Activation: NONE",active; positive
same,mutagenic call,"Test System: CHINESE HAMSTER OVARY, Strain/Indicator: CHO-K1-BH4 (HGPRT), Metabolic Activation: RAT, LIVER, S-9, 3-METHYLCHOLANTHRENE",active; positive
Fc1cnc2ccccc2c1,mutagenic call,"End Point: In vitro Chromosomal aberrations, Test System: Chinese hamster lung fibroblast cells (CHL/IU), Metabolic Activation: Rat, liver, S-9",active; positive (information derived from a figure)
same,mutagenic call,"End Point: In vitro Micronucleus, Test System: Chinese hamster lung fibroblast cells (CHL/IU), Metabolic Activation: Rat, liver, S-9",active; positive (information derived from a figure)
same,mutagenic call,"Test System: AMES SALMONELLA TYPHIMURIUM, Strain/Indicator: TA100, Metabolic Activation: RAT LIVER S-9, PHENOBARBITAL AND 5,6-BENZOFLAVONE, Method: PREINCUBATION",inactive; negative
same,mutagenic call,"Test System: AMES SALMONELLA TYPHIMURIUM, Strain/Indicator: TA100, Metabolic Activation: RAT, LIVER, S-9, AROCLOR 1254, Method: PREINCUBATION",inactive; negative
same,mutagenic call,[1],inactive; negative
same,mutagenic call,"Test System: AMES SALMONELLA TYPHIMURIUM, Strain/Indicator: TA100, Metabolic Activation: RAT, LIVER, S-9, PHENOBARBITAL AND 5,6-NAPHTHOFLAVONE, Method: PREINCUBATION",inactive; negative
same,mutagenic call,"Test System: AMES SALMONELLA, Strain/Indicator: TA100, Metabolic Activation: RAT, LIVER, S-9, PHENOBARBITAL AND 5,6-BENZOFLAVONE, Method: PREINCUBATION",inactive; negative
same,mutagenic call,"Test System: UDS RODENT HEPATOCYTES, Strain/Indicator: THY INCORP (NON-S-PHASE), Metabolic Activation: NONE, Method: AUTORADIOGRAPHY",inactive; negative
O=C(O)/C(Cl)=C(/CCl)C(=O)O,mutagenic call,[6],inactive; negative
same,mutagenic call,[7],inactive; negative
same,mutagenic call,"Test System: AMES SALMONELLA TYPHIMURIUM, Strain/Indicator: TA104, Metabolic Activation: NONE, Method: PREINCUBATION",inactive; negative
C=C1C[C@@]23CC[C@H]4[C@@](C)(CCC[C@@]4(C)C(=O)O[C@@H]4O[C@H](CO)[C@@H](O)[C@H](O)[C@H]4O)[C@@H]2CC[C@]1(O[C@@H]1O[C@H](CO)[C@@H](O)[C@H](O)[C@H]1O[C@@H]1O[C@@H](C)[C@H](O)[C@@H](O)[C@H]1O)C3,mutagenic call,"Test System: AMES SALMONELLA TYPHIMURIUM, Strain/Indicator: TM677, Metabolic Activation: RAT, LIVER, S-9, AROCLOR 1254, Method: PREINCUBATION",inactive; negative
CCc1c2ccccc2cc2c1c1c(c3ccccc32)N1,mutagenic call,[6],active; positive
O=c1c2c(c3ccc4[nH]cccc4c3c1O)O2,mutagenic call,[5],inactive; negative
CCN[C@@H](C)C[C@H](C)NCC.[Cl-].[Cl-].[Pt+2],mutagenic call,"Test System: AMES SALMONELLA TYPHIMURIUM, Strain/Indicator: TA97A, Metabolic Activation: NONE, Method: STANDARD PLATE",active; positive
same,mutagenic call,[5],active; positive
COc1c(O)cc2oc(-c3ccc(O)cc3)cc(=O)c2c1O,mutagenic call,[6],inactive; negative
same,mutagenic call,"Test System: AMES SALMONELLA TYPHIMURIUM, Strain/Indicator: TA98, Metabolic Activation: RAT LIVER S-9, SODIUM BARBITAL AND BETA-NAPHTHAFLAVONE, Method: PREINCUBATION",inactive; negative
same,mutagenic call,[7],inactive; negative
same,mutagenic call,"Test System: AMES SALMONELLA TYPHIMURIUM, Strain/Indicator: TA100, Metabolic Activation: RAT LIVER S-9, SODIUM BARBITAL AND BETA-NAPHTHAFLAVONE, Method: PREINCUBATION",inactive; negative
